One experiment relates to GM3. The experiment can be described thus: GM3 Elisa assay. Type of experiment: cell-based. The conditions noted are these: 48 h, Table 2; B16-FO cells, 2 days incubation; read-out: IC50_uM_Mean. The method, then:
B16-FO cells from ATCC (American Tissue Culture Collection) were grown in DMEM media (ATCC) with 10% Fetal Bovine Serum (Hyclone) and Pen/Step/Glutamine (Biowhittaker). 4000 cells per well were plated on collagen coated plates (BD) and allowed to attach for 6 hours in an incubator (37 degrees, 5% CO2). After 6 hours the compounds and controls were added to the wells, the plates mixed and returned to the incubator for 2 days. Day of assay the cells were fixed for 20 minutes with 1% formaldehyde and then washed with Tris Buffered Saline (TBS) 3 times, 150 μl of TBS was left in the wells and 50 μl of goat serum (Invitrogen) was added, the plates mixed and incubated for 1 hour at room temperature. The plates were flicked and the cells incubated with the monoclonal Antibody to GM3 (NeuAc) (Cosmo) for 45 minutes as room temperature. The plates were then washed 3 times with TBS, leaving 150 μl of TBS in the wells and Peroxidase AffinPure F (ab′) 2 frag Gt Anti-mouse IgM, μ Chain Specific (Jackson Immno Research) was added in 50 μl, the plates mixed and incubated for 45 minutes at room temperature. The plates were washed 3 times with TBS, flicked and blotted and 100 μl of Quantablu (Pierce) was added to the wells and incubated for 1 hour then read on a Fluorometer at Ex 325 and Em 420. The data was then analyzed using standard programs.
As to `Cc1ccc(C(=O)CCC(=O)N[C@H](CC2CCCC2)[C@H](O)c2ccc3c(c2)CCCC3)cc1` [Compound 264], the IC50 was at most 100 nM.
For the compound `COC(=O)CO[C@H](c1ccc2c(c1)OCO2)[C@@H](CN1CCCC1)NC(=O)CCOc1ccc(OC)cc1` [Compound 275], the IC50 was at most 100 nM.

The experiment is the same for the next values; noted with them: 48 h, Table 3; B16-FO cells, 2 days incubation; read-out: IC50_uM_Mean.
For `COc1ccc([C@@H](O)[C@@H](CN2CCCC2)NC(=O)CCCCCC(C)=O)cc1` [Compound 664], the IC50 was 1000 to 3000 nM.
On the same count and under the same terms, the same measure for `COc1ccc(C(=O)CCCCCC(=O)NC(CN2[C@H](C)CC[C@H]2C)[C@H](O)c2ccc3c(c2)OCCO3)cc1` (stereo partly shown) [Compound 548]: 1000 to 3000 nM.
Same read-out and setting: for `COc1ccc(OCCC(=O)N[C@@H](CN2CCCC2)[C@H](O)c2ccc3c(c2)OCCO3)cc1` [Compound 675] the value was 3000 to 10000 nM; for `COc1ccc(C(=O)CCCCC(=O)NC(CN2CCCC2)[C@H](O)c2ccc(OCCC3CCCCC3)cc2)cc1` (stereo partly shown) [Compound 419], at most 100 nM.
Still for that read-out and setting: the same measure for `O=C(CCCCOCC(F)(F)F)N[C@H](CN1CCCC1)[C@H](O)c1ccc(CCc2ccccc2)cc1` [Compound 647]: 100 to 1000 nM.
Turning to `CCCCCCCCCCCCCCCC(=O)N[C@H](CN(C)Cc1ccccc1)[C@@H](O)c1ccc2c(c1)OCCO2` [Compound 682], the IC50 was 3000 to 10000 nM.
On the same count and under the same terms, for `COc1ccc(OCCC(=O)N[C@H](CN2CCC[C@@H]2C)[C@H](O)c2ccc3c(c2)OCCO3)cc1` [Compound 526] the value was 100 to 1000 nM; for `COC[C@H]1CCCN1C[C@@H](NC(=O)CCOc1ccc(OC)cc1)[C@H](O)c1ccc2c(c1)OCCO2` [Compound 538], 3000 to 10000 nM.
`COc1ccc(OCCC(=O)N[C@H](CN2CCCC2)[C@@H](O)c2ccc3c(c2)OCCO3)cc1` [Compound 676]: the IC50 lay within 3000 to 10000 nM.
Same read-out and setting: the same measure for `COc1ccc(C(=O)CCCCCC(=O)N[C@H](CNC(C)C)[C@@H](O)c2ccc3c(c2)OCCO3)cc1` [Compound 465]: 100 to 1000 nM; for `COc1ccc(C(=O)CCCCCC(=O)N[C@H](CN2CCC[C@H]2C)[C@H](O)c2ccc3c(c2)OCCO3)cc1` [Compound 529]: at most 100 nM.
On the same count and under the same terms, the same measure for `CCCCOc1ccc([C@@H](O)[C@@H](CN2CC[C@@H](O)C2)NC(=O)CCCCCOCCF)cc1` [Compound 661]: 1000 to 3000 nM; for `COc1ccc(OCCC(=O)N[C@@H](CN2CCCC2)[C@@H](O)c2ccc3c(c2)OCCO3)cc1` [Compound 674]: 3000 to 10000 nM.
With `CCCCCCCC(=O)N[C@H](CN1CCC(C)(C)C1)[C@@H](O)c1ccc2c(c1)OCCO2` [Compound 521], the IC50 is 3000 to 10000 nM.
Still for that read-out and setting: for `COc1ccc(OCCC(=O)N[C@H](CN2C(C)CCCC2C)[C@@H](O)c2ccc3c(c2)OCCO3)cc1` (stereo partly shown) [Compound 598] the value was 3000 to 10000 nM; for `COc1ccc(OCCC(=O)N[C@H](CN2CCC[C@H]2C)[C@H](O)c2ccc3c(c2)OCCO3)cc1` [Compound 528], 1000 to 3000 nM.
The same measure, in the same setting: the same measure for `COc1ccc(C(=O)CCCCCC(=O)N[C@H](CN2CC[C@@H](O)C2)[C@@H](O)c2ccc3c(c2)OCCO3)cc1` [Compound 518]: 100 to 1000 nM; for `COC[C@@H]1CCCN1CC(NC(=O)CCCCCC(=O)c1ccc(OC)cc1)[C@@H](O)c1ccc2c(c1)OCCO2` (stereo partly shown) [Compound 533]: 100 to 1000 nM.
Still for that read-out and setting: for `COCCOc1ccc(C(O)[C@@H](CN2CCCC2)NC(=O)CCCCC(=O)c2ccc(OC)cc2)cc1` (stereo partly shown) [Compound 417] the value was at most 100 nM; for `O=C(CCCCS(=O)(=O)C12CC3CCCC(C1)C(C3)C2)N[C@H](CN1CCCC1)[C@@H](O)c1ccc2c(c1)OCCO2` (stereo partly shown) [Compound 560], 100 to 1000 nM; for `Cc1noc(CCCCC(=O)N[C@@H](CC2CCCC2)[C@H](O)c2ccc3c(c2)OCCO3)n1` [Compound 652], 3000 to 10000 nM.
As to `COc1ccc(C(=O)CCCCCC(=O)N[C@H](CN2CCC[C@@H]2C)[C@H](O)c2ccc3c(c2)OCCO3)cc1` [Compound 525], the IC50 is at most 100 nM.
Still for that read-out and setting: for `COCOc1ccc(C(=O)CCCC(=O)N[C@H](CN2CC[C@H](O)C2)[C@H](O)c2ccc(OC(C)C)cc2)cc1` [Compound 737] the value was 100 to 1000 nM; for `CCCCCCCC(=O)NC(CN1[C@H](C)CC[C@H]1C)[C@H](O)c1ccc2c(c1)OCCO2` (stereo partly shown) [Compound 549], 3000 to 10000 nM; for `O=C(CCCCCC1CCOCC1)N[C@H](CN1CC[C@@H](F)C1)[C@H](O)c1cccc(OCc2ccccc2)c1` [Compound 574], 100 to 1000 nM.
Still for that read-out and setting: the same measure for `COc1ccc(CCCCN(C(=O)CCCCC(=O)c2ccc(OC)cc2)[C@H](CN2CCCC2)[C@H](O)c2ccc(O)cc2)cc1` [Compound 429]: 3000 to 10000 nM; for `N#CCCCCCC(=O)C[C@H](CN1CCCC1)[C@H](O)c1ccc2c(c1)OCCO2` [Compound 632]: 3000 to 10000 nM; for `Cc1nccn1C[C@@H](NC(=O)CCCCCC(=O)c1ccc(F)cc1)[C@H](O)c1ccc2c(c1)OCCO2` [Compound 569]: 3000 to 10000 nM.
Still for that read-out and setting: the same measure for `COc1ccc(C(=O)CCCCCC(=O)N[C@H](CN2CCC(C)(C)C2)[C@@H](O)c2ccc3c(c2)OCCO3)cc1` [Compound 520]: 1000 to 3000 nM.
With `CCCCCCCC(=O)N[C@H](CN1CCC[C@@H]1C)[C@H](O)c1ccc2c(c1)OCCO2` [Compound 527], the IC50 fell in the range of 1000 to 3000 nM.
Take `CCCCOc1ccc([C@@H](O)[C@@H](CN2CC[C@@H](F)C2)NC(=O)CCCCCCCOC)cc1` [Compound 584]: the IC50 was in the range of 100 to 1000 nM.
Same read-out and setting: for `COc1ccc(OCCC(=O)NC(CN2[C@H](C)CC[C@H]2C)[C@H](O)c2ccc3c(c2)OCCO3)cc1` (stereo partly shown) [Compound 550] the value was 3000 to 10000 nM.
For the compound `CCCNC[C@@H](NC(=O)CCCCCC(=O)c1ccc(OC)cc1)[C@H](O)c1ccc2c(c1)OCCO2` [Compound 467], the IC50 lay in the range of 100 to 1000 nM.

The same experiment, now with this note: 48 h; Table 1; B16-FO cells, 2 days incubation; read-out: IC50_uM_Mean.
Consider `COc1ccc(OCCC(=O)N[C@H](CN2CCCC2)[C@H](O)c2ccc3c(c2)OCCO3)cc1` [Compound 61, N-((1R,2R)-1-(2,3-dihydrobenzo[β][1,4]dioxin-6-yl)-1-hydroxy-3-(pyrrolidin-1-yl)propan-2-yl)-3-(4-methoxyphenoxy)propanamide], for which the IC50 is at most 100 nM.

Still in this experiment, the particulars now being: Table 1; B16-FO cells, 2 days incubation; read-out: IC50_uM_Mean.
For `CC(=O)CCc1ccc(OCCC(=O)N[C@H](CN2CCCC2)[C@H](O)c2ccc3c(c2)OCCO3)cc1` [Compound 193, N-((1R,2R)-1-(2,3-dihydrobenzo[b][1,4]dioxin-6-yl)-1-hydroxy-3-(pyrrolidin-1-yl)propan-2-yl)-3-(4-(3-oxobutyl)phenoxy)propanamide(2R,3R)-2,3-dihydroxysuccinate], the IC50 fell in the range of 100 to 1000 nM.

The values are drawn from US8729075B2, “Glucosylceramide synthase inhibition for the treatment of collapsing glomerulopathy and other glomerular disease” (Genzyme Corporation, priority 2008, dated 2014).
